Assays:
Assay type in all cases: biochemical
cDNA (human) = assay: PCR Residual Activity Assay with three primer sets, agarose gel; conditions: preincubation 25° C. for 60 min, 40 cycles
Procedure: Under these conditions, if hot-start techniques were not employed, primer dimers tend to form in the PCR reaction mix.
This example includes reactions which is referred to as PCR Residual Activity Assay that involved three set of primers respectively. The primer sets are commercially available from Applied Biosystems, Foster City, Calif. Specifically, Set 1 is Hs00378363_g1; Set 2, Hs00399572_m1 and Set 3, Hs00372859_m1.
The components are listed below:
50 Unit/ml DNA polymerase
and 0.8 ng/μl cDNA (human)
Due to the needs of the individual polymerases, 1× buffer and 1×MgCl2 are different as stated below:
The cycling conditions for ECA001 are listed below:
The cycling conditions for ECA001-Gold:
The cycling conditions for AmpliTaq:
The cycling conditions for AmpliTaq Gold:
Each reaction was run in duplication.

[1] = exonuclease to polymerase activity ratio after modification and re-activation; conditions: 5′-3′ exonuclease activity
From the text: (See details in Example 5)
It is true that lysine is a common amino acid that can be found in many enzymes.

[2] = polymerase activity at room temperature relative to peak activity
From the text: Pol B DNA polymerases enzymes have relative low polymerase activity at room temperature, while Taq DNA polymerase still retains >5% of its peak activity (FIG. 4).

Substance | non-specific/primer-dimer products versus specific products (cDNA (human)) | exonuclease to polymerase activity ratio [1] | polymerase activity retained, of its peak activity [2]
AmpliTaq: AmpliTaq DNA polymerase | mostly non-specific/primer-dimer products | has been changed | 
Taq DNA polymerase: Thermus aquaticus Pol I (Taq DNA polymerase) |  |  | > 5%
AmpliTaq Gold: commercial hot-start modified Taq polymerase used as comparator | mostly the specific products |  | 

From patent US20180094250A1, “Methods And Compositions For PCR” (Life Technologies Coroporation, priority 2007, published 2018)
